Results: patent US6369252B1, “Structured lipids” (The University of Georgia Research Foundation, Inc., priority 1998, dated 2002)

Legend:
[1] = Oxidative stability index (OSI); assay type: physicochemical; conditions: 80° C., air flow […]
Experimental: Oxidative stability index (OSI). An Oxidative Stability Instrument (Omnion, Rockland, Mass.) was used to measure induction times. Five grams of tricaprylin, EPAX 5500 (fish oil TAG, Pronova Biocare, Sandefjord, Norway), and SL which was deacidified by alkali-liquid extraction were placed into the disposable borosilicate glass reaction tubes with disposable pipets. The heating temperature was 80° C. The polycarbonate conductivity tubes were filled with deionized water and he probes were connected. After temperature reached 80° C., air was bubbled in. […] OSI time was determined with an on-line computer, which monitored the conductivity vs time and plotted the induction period automatically. OSI values at 80° C. were converted to AOM and OSI values at 97.8° C.

[2] = TBA (2-thiobarbituric acid) lipid oxidation test; assay type: physicochemical; conditions: 1, 2, and 4% α-tocopherol in SL, after 48 hours
Experimental: TBA. A modified extraction 2-thiobarbituric acid method was used, Salih, et al., Poult. Sci., 66:1483-1488 (1987). The TBA test expresses lipid oxidation in milligram malonaldehyde (secondary oxidation product of polyunsaturated fatty acids) per kilogram of sample. 1±0.002 grams of SL was mixed with 0.01, 0.02, and 0.04 grams of α-tocopherol in a 25 mL flask and left at room temperature without protection from light for 12, 24, and 48 hours. Each sample was then purged with nitrogen and stored at −90° C. until assay. One milliliter of 6% BHT in ethanol and 25 mL 5% TCA solution in distilled water were added to each sample and blended. A 2 mL aliquot of the blended sample was mixed with 0.02 M TBA solution (3 mL) in screw capped test tubes. After vortexing (30 sec.), the tubes were incubated in boiling water for 30 min., cooled and the absorbance against blank was measured at 535 nm. A 5 μL aliquot of TEP (0.92 g/mL) was diluted to 5 mL with 5% TCA solution and diluted to prepare various concentrations ranging from […]. Each dilution was incubated and the absorbance against blank was measured after cooling. Standard curve was plotted using absorbance values vs amount of TEP which was converted from concentration.

| SMILES | OSI value [1] | antioxidant effect on SL (TBA) [2] |
| --- | --- | --- |
| CCCCCCCC(=O)OCC(COC(=O)CCCCCCC)OC(=O)CCCCCCC [tricaprylin, 1,2,3-trioctanoyl glycerol] | quite stable to oxidation | – |
| Cc1c(C)c2c(c(C)c1O)CC[C@@](C)(CCC[C@H](C)CCC[C@H](C)CCCC(C)C)O2 [α-tocopherol] | – | reduced the oxidation of SL significantly |
